Laboratory results as given in ChEMBL document CHEMBL4311945, “Development of Dual Chitinase Inhibitors as Potential New Treatment for Respiratory System Diseases” (J Med Chem, 2019).
Values after ≈ are worked out from the molar mass of the structure shown. Blank lines part the entries; values can stand above or below the compound they belong to.

Assays:
[1] = molecular target: T1, Voltage-gated inwardly rectifying potassium channel KCNH2 (Homo sapiens, UniProt Q12809); assay: Displacement of Tracer Red from human ERG by fluorescence polarization assay
Chitotriosidase-1 [2] = molecular target: Chitotriosidase-1 (Mus musculus, UniProt Q9D7Q1); assay: Inhibition of full-length C-terminal his-tagged mouse CHIT1 expressed in CHO-K1 cells assessed as reduction in chitinolytic activity using 4-methylumbelliferyl-beta-D-N,N',N\"-triacetylchitotrioside as substrate after 60 mins by fluorometric assay; format: cell-based
[3] = molecular target: Acidic mammalian chitinase (Mus musculus, UniProt Q91XA9); assay: Inhibition of full-length C-terminal his-tagged mouse acidic mammalian chitinase expressed in CHO-K1 cells assessed as reduction in chitinolytic activity using 4-methylumbelliferyl-beta-D-N,N'-diacetylchitobioside hydrate as substrate after 60 mins by fluorometric assay
Chitotriosidase-1 [4] = molecular target: Chitotriosidase-1 (Homo sapiens, UniProt Q13231); assay: Inhibition of full-length C-terminal his-tagged human CHIT1 expressed in CHOK1 cells assessed as reduction in chitinolytic activity using 4-methylumbelliferyl-beta-D-N,N',N\"-triacetylchitotrioside as substrate after 60 mins by fluorometric assay; format: cell-based
[5] = Lipophilicity, logD of the compound at pH 7.4; format: physicochemical; details: buffer
[6] = molecular target: dopamine transporter (DAT) (Homo sapiens, UniProt Q01959); assay: Displacement of [3H]BTCP from recombinant human dopamine transporter at 10 uM after 120 mins by scintillation counting analysis relative to control; format: ADME; details: probe [3H]BTCP
Mus musculus = assay: Antiinflammatory activity in C57BL/6 mouse model of house-dust mite induced pulmonary inflammation assessed as reduction in total CD45 positive cells in bronchoalveolar lavage fluid at 50 mg/kg, po administered once daily starting from day 7 post house-dust mite challenge and measured on day 19 by flow cytometric method relative to control; format: functional; parameters: scale not given: the % may be the effect or the level left
[7] = Drug uptake in BALB/c mouse brain at 10 mg/kg, po administered as single dose after 2 hrs by LC/MS/MS analysis; format: ADME, organism-based; details: in vivo
[8] = molecular target: Sodium-dependent dopamine transporter (Homo sapiens, UniProt Q01959); assay: Inhibition of radioligand binding to human dopamine transporter by radioligand binding assay; format: ADME
[9] = molecular target: Sodium-dependent dopamine transporter (Rattus norvegicus, UniProt P23977); assay: Displacement of [3H]DA from rat dopamine transporter after 15 mins by scintillation counting analysis; format: ADME
[10] = molecular target: T1, Voltage-gated inwardly rectifying potassium channel KCNH2; assay: Inhibition of human ERG expressed in CHO-K1 cells by automated Patch Clamp method; format: cell-based
[11] = Oral bioavailability in Sprague-Dawley rat at 10 mg/kg measured upto 12 hrs by LC/MS/MS analysis; format: ADME, organism-based; details: in vivo
[12] = Tmax in Sprague-Dawley rat at 10 mg/kg, po measured upto 12 hrs by LC/MS/MS analysis; format: ADME, organism-based; details: in vivo
[13] = Genotoxicity in Salmonella typhimurium; format: toxicity; details: salmonella enterica subsp. enterica serovar typhimurium
[14] = Half-life in Sprague-Dawley rat at 10 mg/kg, po measured upto 12 hrs by LC/MS/MS analysis; format: ADME, organism-based; details: in vivo
[15] = Cmax in Sprague-Dawley rat at 10 mg/kg, po measured upto 12 hrs by LC/MS/MS analysis; format: ADME, organism-based; parameters: dose 10 mg/kg, route oral; details: in vivo
[16] = AUC (0 to infinity) in Sprague-Dawley rat at 10 mg/kg, po measured upto 12 hrs by LC/MS/MS analysis; format: ADME, organism-based; parameters: dose 10 mg/kg, route oral, time infinity; details: in vivo
[17] = Half-life in Sprague-Dawley rat at 3 mg/kg, iv administered as single bolus dose measured after 5 to 12 hrs by LC/MS/MS analysis; format: ADME, organism-based; details: in vivo
[18] = Cmax in Sprague-Dawley rat at 3 mg/kg, iv administered as single bolus dose measured after 5 to 12 hrs by LC/MS/MS analysis; format: ADME, organism-based; parameters: dose 3 mg/kg, route intravenous; details: in vivo
[19] = AUC (0 to infinity) in Sprague-Dawley rat at 3 mg/kg, iv administered as single bolus dose measured after 5 to 12 hrs by LC/MS/MS analysis; format: ADME, organism-based; parameters: dose 3 mg/kg, time infinity, route intravenous; details: in vivo
[20] = Oral bioavailability in BALB/c mouse at 10 mg/kg measured after 24 hrs by LC/MS/MS analysis; format: ADME, organism-based; details: in vivo
[21] = Tmax in BALB/c mouse at 10 mg/kg, po measured after 24 hrs by LC/MS/MS analysis; format: ADME, organism-based; details: in vivo
[22] = AUC (0 to infinity) in BALB/c mouse at 10 mg/kg, po measured after 24 hrs by LC/MS/MS analysis; format: ADME, organism-based; parameters: dose 10 mg/kg, route oral, time infinity; details: in vivo
[23] = Cmax in BALB/c mouse at 10 mg/kg, po measured after 24 hrs by LC/MS/MS analysis; format: ADME, organism-based; parameters: dose 10 mg/kg, route oral; details: in vivo
[24] = Half-life in BALB/c mouse at 10 mg/kg, po measured after 24 hrs by LC/MS/MS analysis; format: ADME, organism-based; details: in vivo
[25] = Half-life in BALB/c mouse at 3 mg/kg, iv administered as single bolus dose measured after 24 hrs by LC/MS/MS analysis; format: ADME, organism-based; details: in vivo
[26] = Clearance in BALB/c mouse at 3 mg/kg, iv administered as single bolus dose measured after 24 hrs by LC/MS/MS analysis; format: ADME, organism-based; details: in vivo
[27] = Cmax in BALB/c mouse at 3 mg/kg, iv administered as single bolus dose measured after 24 hrs by LC/MS/MS analysis; format: ADME, organism-based; parameters: dose 3 mg/kg, route intravenous; details: in vivo
[28] = Solubility of the compound in water; format: physicochemical
[29] = AUC (0 to infinity) in BALB/c mouse at 3 mg/kg, iv administered as single bolus dose measured after 24 hrs by LC/MS/MS analysis; format: ADME, organism-based; parameters: dose 3 mg/kg, time infinity, route intravenous; details: in vivo
[30] = molecular target: Acidic mammalian chitinase (Homo sapiens, UniProt Q9BZP6); assay: Inhibition of full-length C-terminal his-tagged human acidic mammalian chitinase expressed in CHOK1 cells assessed as reduction in chitinolytic activity using 4-methylumbelliferyl-beta-D-N,N-diacetylchitobioside hydrate as substrate after 60 mins by fluorometric assay
Acidic mammalian chitinase (Homo sapiens, UniProt Q9BZP6), sequence (Q9BZP6 whole entry): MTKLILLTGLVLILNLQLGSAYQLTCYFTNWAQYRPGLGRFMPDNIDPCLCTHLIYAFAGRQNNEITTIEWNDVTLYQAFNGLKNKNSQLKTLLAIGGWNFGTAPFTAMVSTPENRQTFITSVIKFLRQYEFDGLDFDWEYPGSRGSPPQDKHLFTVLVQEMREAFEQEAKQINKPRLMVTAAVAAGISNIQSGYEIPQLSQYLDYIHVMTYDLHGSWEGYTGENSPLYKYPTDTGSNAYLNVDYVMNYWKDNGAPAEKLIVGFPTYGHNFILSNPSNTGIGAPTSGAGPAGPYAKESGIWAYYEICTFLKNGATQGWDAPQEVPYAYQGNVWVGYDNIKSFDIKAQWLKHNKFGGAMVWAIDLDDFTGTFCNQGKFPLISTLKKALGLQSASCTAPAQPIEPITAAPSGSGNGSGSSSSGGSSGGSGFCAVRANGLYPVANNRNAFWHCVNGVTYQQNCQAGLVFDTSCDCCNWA

Chitotriosidase-1 (Homo sapiens, UniProt Q13231), sequence (Q13231 whole entry): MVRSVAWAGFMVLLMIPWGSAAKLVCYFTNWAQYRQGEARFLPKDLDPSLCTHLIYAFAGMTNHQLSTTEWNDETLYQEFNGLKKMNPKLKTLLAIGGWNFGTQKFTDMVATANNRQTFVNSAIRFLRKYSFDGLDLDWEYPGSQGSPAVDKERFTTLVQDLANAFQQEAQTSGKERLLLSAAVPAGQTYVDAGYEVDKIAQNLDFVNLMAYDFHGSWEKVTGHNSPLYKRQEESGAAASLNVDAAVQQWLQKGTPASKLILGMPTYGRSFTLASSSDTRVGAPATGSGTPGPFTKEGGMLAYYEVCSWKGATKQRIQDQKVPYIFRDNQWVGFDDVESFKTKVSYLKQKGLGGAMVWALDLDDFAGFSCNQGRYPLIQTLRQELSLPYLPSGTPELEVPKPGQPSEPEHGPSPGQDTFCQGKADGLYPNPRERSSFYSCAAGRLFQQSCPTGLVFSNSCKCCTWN
T1 sequence (Q12809 whole entry): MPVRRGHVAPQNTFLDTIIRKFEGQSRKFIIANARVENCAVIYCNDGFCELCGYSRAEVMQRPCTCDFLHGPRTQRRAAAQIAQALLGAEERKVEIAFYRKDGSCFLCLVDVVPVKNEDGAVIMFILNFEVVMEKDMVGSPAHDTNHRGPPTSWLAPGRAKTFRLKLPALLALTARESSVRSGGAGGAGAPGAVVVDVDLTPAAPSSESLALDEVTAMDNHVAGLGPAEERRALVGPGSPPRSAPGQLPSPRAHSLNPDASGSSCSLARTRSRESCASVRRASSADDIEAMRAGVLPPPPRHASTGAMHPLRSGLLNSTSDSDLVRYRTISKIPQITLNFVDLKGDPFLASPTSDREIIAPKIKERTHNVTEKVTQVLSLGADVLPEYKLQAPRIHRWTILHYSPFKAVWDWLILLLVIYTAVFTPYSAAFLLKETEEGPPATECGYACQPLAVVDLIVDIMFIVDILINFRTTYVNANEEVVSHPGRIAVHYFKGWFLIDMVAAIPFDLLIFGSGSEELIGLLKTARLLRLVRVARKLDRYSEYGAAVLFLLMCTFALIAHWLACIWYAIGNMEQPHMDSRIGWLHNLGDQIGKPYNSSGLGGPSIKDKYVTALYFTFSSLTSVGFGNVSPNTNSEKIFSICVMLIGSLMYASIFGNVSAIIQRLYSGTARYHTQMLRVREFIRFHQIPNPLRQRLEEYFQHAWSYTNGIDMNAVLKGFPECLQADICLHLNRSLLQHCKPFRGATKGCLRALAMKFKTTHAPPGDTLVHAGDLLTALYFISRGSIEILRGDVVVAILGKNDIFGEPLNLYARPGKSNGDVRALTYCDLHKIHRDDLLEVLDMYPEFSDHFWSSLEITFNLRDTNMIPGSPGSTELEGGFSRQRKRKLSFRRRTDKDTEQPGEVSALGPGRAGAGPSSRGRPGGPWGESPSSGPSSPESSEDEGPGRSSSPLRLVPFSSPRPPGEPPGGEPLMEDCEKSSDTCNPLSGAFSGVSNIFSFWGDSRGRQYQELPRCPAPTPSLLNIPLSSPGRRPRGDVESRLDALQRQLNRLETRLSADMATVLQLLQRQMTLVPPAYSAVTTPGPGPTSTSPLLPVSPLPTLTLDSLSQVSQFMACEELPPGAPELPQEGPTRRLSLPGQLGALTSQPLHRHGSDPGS
Acidic mammalian chitinase (Mus musculus, UniProt Q91XA9), sequence (Q91XA9 whole entry): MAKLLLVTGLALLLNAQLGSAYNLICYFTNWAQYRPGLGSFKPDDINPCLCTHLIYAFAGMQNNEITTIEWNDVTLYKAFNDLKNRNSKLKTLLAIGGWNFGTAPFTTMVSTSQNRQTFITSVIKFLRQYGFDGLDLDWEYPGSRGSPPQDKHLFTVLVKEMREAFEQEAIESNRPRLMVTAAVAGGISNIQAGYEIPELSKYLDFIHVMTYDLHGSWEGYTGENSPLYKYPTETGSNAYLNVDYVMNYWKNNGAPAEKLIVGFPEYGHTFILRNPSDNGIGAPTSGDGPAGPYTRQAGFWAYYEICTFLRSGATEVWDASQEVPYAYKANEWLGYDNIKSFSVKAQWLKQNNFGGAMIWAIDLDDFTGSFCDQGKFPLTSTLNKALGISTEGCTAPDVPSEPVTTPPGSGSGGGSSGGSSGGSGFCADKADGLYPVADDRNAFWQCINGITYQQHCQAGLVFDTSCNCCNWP
Chitotriosidase-1 (Mus musculus, UniProt Q9D7Q1), sequence (Q9D7Q1 whole entry): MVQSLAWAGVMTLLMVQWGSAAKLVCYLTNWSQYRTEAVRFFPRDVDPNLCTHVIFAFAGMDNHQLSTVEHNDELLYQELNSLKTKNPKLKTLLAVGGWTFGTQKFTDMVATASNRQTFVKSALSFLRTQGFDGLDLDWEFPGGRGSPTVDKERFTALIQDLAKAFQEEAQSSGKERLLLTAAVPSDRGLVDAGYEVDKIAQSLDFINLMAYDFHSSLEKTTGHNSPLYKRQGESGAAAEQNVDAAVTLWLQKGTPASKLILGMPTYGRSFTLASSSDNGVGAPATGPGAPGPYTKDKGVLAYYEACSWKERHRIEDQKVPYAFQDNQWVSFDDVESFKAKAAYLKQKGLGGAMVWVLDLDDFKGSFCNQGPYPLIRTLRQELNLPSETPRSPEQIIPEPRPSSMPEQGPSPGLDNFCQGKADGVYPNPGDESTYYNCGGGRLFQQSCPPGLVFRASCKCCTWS
dopamine transporter (DAT), sequence (Q01959 whole entry): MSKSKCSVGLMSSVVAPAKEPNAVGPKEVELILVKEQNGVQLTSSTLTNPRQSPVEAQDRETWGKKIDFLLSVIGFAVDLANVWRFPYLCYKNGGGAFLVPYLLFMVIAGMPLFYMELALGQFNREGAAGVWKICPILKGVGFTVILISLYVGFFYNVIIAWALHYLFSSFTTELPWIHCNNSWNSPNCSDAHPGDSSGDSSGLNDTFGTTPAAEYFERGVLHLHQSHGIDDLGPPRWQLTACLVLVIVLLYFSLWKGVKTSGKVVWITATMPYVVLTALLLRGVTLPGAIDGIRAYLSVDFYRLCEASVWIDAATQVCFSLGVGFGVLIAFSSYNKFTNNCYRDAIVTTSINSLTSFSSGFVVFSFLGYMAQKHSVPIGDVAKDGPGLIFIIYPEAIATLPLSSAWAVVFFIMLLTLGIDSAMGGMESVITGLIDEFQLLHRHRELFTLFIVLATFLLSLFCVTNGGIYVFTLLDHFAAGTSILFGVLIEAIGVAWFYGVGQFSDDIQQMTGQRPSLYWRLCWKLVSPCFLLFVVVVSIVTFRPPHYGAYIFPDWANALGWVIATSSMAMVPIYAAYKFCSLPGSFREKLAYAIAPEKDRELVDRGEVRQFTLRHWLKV
Sodium-dependent dopamine transporter (Homo sapiens, UniProt Q01959), sequence (Q01959 whole entry): as above
Sodium-dependent dopamine transporter (Rattus norvegicus, UniProt P23977), sequence (P23977 whole entry): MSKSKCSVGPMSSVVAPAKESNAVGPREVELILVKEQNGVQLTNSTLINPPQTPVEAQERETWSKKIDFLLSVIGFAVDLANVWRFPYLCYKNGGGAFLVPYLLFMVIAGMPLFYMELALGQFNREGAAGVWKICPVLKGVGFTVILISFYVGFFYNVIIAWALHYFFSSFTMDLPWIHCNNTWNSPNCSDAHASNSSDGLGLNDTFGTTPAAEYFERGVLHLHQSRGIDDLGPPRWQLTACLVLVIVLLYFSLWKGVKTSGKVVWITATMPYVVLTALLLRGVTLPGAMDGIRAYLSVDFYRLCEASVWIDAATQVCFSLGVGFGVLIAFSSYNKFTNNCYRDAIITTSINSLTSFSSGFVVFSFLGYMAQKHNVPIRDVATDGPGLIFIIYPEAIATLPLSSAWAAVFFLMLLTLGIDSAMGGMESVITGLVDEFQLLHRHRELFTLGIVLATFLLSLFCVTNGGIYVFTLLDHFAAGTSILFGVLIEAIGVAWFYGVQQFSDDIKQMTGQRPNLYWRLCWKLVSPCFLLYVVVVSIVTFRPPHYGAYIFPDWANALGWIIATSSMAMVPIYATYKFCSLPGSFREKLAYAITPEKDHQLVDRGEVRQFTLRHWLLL

- IC50 (Chitotriosidase-1 [2]): 5500 nM
- IC50 [3]: 27 nM
- IC50 (Chitotriosidase-1 [4]): 180 nM
SMILES: Nc1n[nH]c(N2CCC(N(CCc3ccc(Cl)cc3)C3COC3)CC2)n1
- IC50 [1]: 4400 nM

- IC50 (Chitotriosidase-1 [2]): 19000 nM
- IC50 [3]: 335 nM
- IC50 (Chitotriosidase-1 [4]): 1850 nM
SMILES: Nc1n[nH]c(N2CCC(N3CCCC(c4ccc(Cl)cc4)C3)CC2)n1 (centres undefined)

- IC50 (Chitotriosidase-1 [2]): 12500 nM
- IC50 [3]: 110 nM
- IC50 (Chitotriosidase-1 [4]): 530 nM
SMILES: CO[C@H](C)CN(CCc1ccc(Cl)cc1)C1CCN(c2nc(N)n[nH]2)CC1
- IC50 [1]: 6400 nM

- logD [5]: 0.81
- IC50 (Chitotriosidase-1 [2]): 520 nM
- IC50 [3]: 170 nM
SMILES: Nc1nnc(N2CCC(N3C[C@@H](O)C[C@@H]3Cc3ccc(Cl)cc3)CC2)[nH]1
- IC50 [1]: 13200 nM

- IC50 (Chitotriosidase-1 [2]): 4700 nM
- IC50 [3]: 73 nM
- IC50 (Chitotriosidase-1 [4]): 395 nM
SMILES: CC(C)(O)CN(CCc1ccc(Cl)cc1)C1CCN(c2nc(N)n[nH]2)CC1
- IC50 [1]: 19000 nM

- inhibition at 2 h, 10 µM [6]: 13%
- IC50 (Chitotriosidase-1 [2]): 7550 nM
- IC50 [3]: 21 nM
- IC50 (Chitotriosidase-1 [4]): 870 nM
SMILES: CNS(=O)(=O)CCN(CCc1ccc(Cl)cc1)C1CCN(c2nc(N)n[nH]2)CC1

- inhibition at 2 h, 10 µM [6]: 4%
- IC50 (Chitotriosidase-1 [2]): 12500 nM
- IC50 [3]: 22 nM
- IC50 (Chitotriosidase-1 [4]): 1200 nM
SMILES: CS(=O)(=O)NCCN(CCc1ccc(Cl)cc1)C1CCN(c2nc(N)n[nH]2)CC1
- IC50 [1]: 7200 nM

- IC50 (Chitotriosidase-1 [2]): 6800 nM
- IC50 (Chitotriosidase-1 [4]): 330 nM
SMILES: C[C@@H](O)CN(CCc1ccc(Cl)cc1)C1CCN(c2nc(N)n[nH]2)CC1
- IC50 [1]: 6100 nM

- Drug uptake [7]: 6.8%
- IC50 [8]: 300 nM
- IC50 [9]: 7900 nM
- bioavailability [11]: 48%
- Tmax [12]: 1.5 h
- half-life [14]: 2.14 h
- Cmax [15]: 1560 ng/mL
- AUC(0-inf) [16]: 8010 ng·h/mL
- half-life [17]: 7.95 h
- Cmax [18]: 16500 ng/mL
- AUC [19]: 4980 ng·h/mL
- bioavailability [20]: 70%
- Tmax [21]: 1 h
- AUC(0-inf) [22]: 11100 ng·h/mL
- Cmax [23]: 2390 ng/mL
- half-life [24]: 2.68 h
- half-life [25]: 2.5 h
- clearance [26]: 10.5 mL/min/kg
- Cmax [27]: 1590 ng/mL
- solubility [28]: 310 µg/mL (≈ 823 µM)
- AUC(0-inf) [29]: 4760 ng·h/mL
- logD [5]: 1.96
- inhibition at 2 h, 10 µM [6]: 95%
- IC50 (Chitotriosidase-1 [2]): 74 nM
- IC50 [3]: 30 nM
- IC50 (Chitotriosidase-1 [4]): 48 nM
- IC50 [30]: 22 nM
SMILES: Nc1nnc(N2CCC(N3CCOC[C@@H]3Cc3ccc(Cl)cc3)CC2)[nH]1
- Activity (Mus musculus): 37%
- IC50 [10]: 12000 nM
- Activity [13]: Non-Toxic
- IC50 [1]: 39000 nM

- inhibition at 2 h, 10 µM [6]: 50%
- IC50 (Chitotriosidase-1 [2]): 750 nM
- IC50 [3]: 56 nM
- IC50 (Chitotriosidase-1 [4]): 21 nM
SMILES: Nc1n[nH]c(N2CCC(N(CCc3ccc(Cl)cc3)CC3CCCCO3)CC2)n1 (centres undefined)
- IC50 [1]: 11000 nM

- IC50 (Chitotriosidase-1 [2]): 2350 nM
- IC50 (Chitotriosidase-1 [4]): 145 nM
SMILES: C[C@H](O)CN(CCc1ccc(Cl)cc1)C1CCN(c2nc(N)n[nH]2)CC1
- IC50 [1]: 14000 nM

- logD [5]: 1.55
- IC50 (Chitotriosidase-1 [2]): 5550 nM
- IC50 [3]: 485 nM
- IC50 (Chitotriosidase-1 [4]): 580 nM
SMILES: CO[C@H]1CN(C2CCN(c3nnc(N)[nH]3)CC2)[C@H]1Cc1ccc(Cl)cc1
- IC50 [1]: 340 nM

- logD [5]: 1.56
- IC50 (Chitotriosidase-1 [2]): 255 nM
- IC50 [3]: 21 nM
- IC50 (Chitotriosidase-1 [4]): 44 nM
SMILES: CO[C@@H]1C[C@H](Cc2ccc(Cl)cc2)N(C2CCN(c3n[nH]c(N)n3)CC2)C1
